According to patent US7186749B2, “Pyrrolo-naphthyl acids and methods for using them” (Wyeth, priority 2004, dated 2007):

Tests used:
[1] = target: T1, recombinant human plasminogen activator inhibitor-1 (PAI-1) (Homo sapiens, UniProt P05121); experiment: Primary screen for PAI-1 inhibition (chromogenic tPA activity, Spectrozyme-tPA); type: biochemical; settings: 140 nM PAI-1, 70 nM tPA, pH 6.6; for inhibition at 10 µM: test compound 10 μM; for inhibition at 25 µM: test compound 25 μM
T1 construct: purchased Molecular Innovations, Royal Oak, Mich
T1 sequence (P05121 24-402): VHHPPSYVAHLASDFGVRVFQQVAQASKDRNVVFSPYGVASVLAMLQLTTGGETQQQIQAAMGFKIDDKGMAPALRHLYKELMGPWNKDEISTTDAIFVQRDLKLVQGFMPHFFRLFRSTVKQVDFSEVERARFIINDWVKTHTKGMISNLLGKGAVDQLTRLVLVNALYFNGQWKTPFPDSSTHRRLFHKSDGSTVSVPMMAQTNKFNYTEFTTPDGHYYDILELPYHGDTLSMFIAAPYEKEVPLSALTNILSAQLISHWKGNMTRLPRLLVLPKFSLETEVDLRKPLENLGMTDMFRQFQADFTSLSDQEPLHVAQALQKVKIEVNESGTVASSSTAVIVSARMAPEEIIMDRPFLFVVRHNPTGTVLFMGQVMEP
Method: Test compounds are dissolved in DMSO at a final concentration of 10 mM, then diluted 100× in physiologic buffer. The inhibitory assay is initiated by the addition of the test compound (1–100 μM final concentration, maximun DMSO concentration of 0.2%) in a pH 6.6 buffer containing 140 nM recombinant human plasminogen activator inhibitor-1 (PAI-1; Molecular Innovations, Royal Oak, Mich.). Following a 1 hour incubation at room temperature, 70 nM of recombinant human tissue plasminogen activator (tPA) is added, and the combination of the test compound, PAI-1 and tPA is incubated for an additional 30 minutes. Following the second incubation, Spectrozyme-tPA (American Diagnostica, Greenwich, Conn.), a chromogenic substrate for tPA, is added and absorbance read at 405 nm at 0 and 60 minutes. Relative PAI-1 inhibition is equal to the residual tPA activity in the presence of the test compound and PAI-1. Control treatments include the complete inhibition of tPA by PAI-1 at the molar ratio employed (2:1), and the absence of any effect of the test compound on tPA alone.

[2] = target: human PAI-1 (Homo sapiens, UniProt P05121); experiment: Antibody assay for determining IC50 of inhibition of PAI-1 (active PAI-1 bound to tPA-coated plate); type: binding; settings: pH 7.5, human PAI-1 50 ng/ml
Sequence of human PAI-1 (P05121 24-402): as above
Method: This assay is based upon the non-SDS dissociable interaction between tPA and active PAI-1. Assay plates are initially coated with human tPA (10 μg/ml). Test compounds of the present invention are dissolved in DMSO at 10 mM, then diluted with physiologic buffer (pH 7.5) to a final concentration of 1–50 μM. Test compounds are incubated with human PAI-1 (50 ng/ml) for 15 minutes at room temperature. The tPA-coated plate is washed with a solution of 0.05% Tween 20 and 0.1% BSA, then the plate is blocked with a solution of 3% BSA. An aliquot of the pyrrolo-naphthyl/PAI-1 solution is then added to the tPA-coated plate, incubated at room temperature for 1 hour, and washed. Active PAI-1 bound to the plate is assessed by adding an aliquot of a 1:1000 dilution of the 33B8 monoclonal antibody against human PAI-1, and incubating the plate at room temperature for 1 hour (Molecular Innovations, Royal Oak, Mich.). The plate is again washed, and a solution of goat anti-mouse IgG-alkaline phosphatase conjugate is added at a 1:50,000 dilution in goat serum. The plate is incubated 30 minutes at room temperature, washed, and a solution of alkaline phosphatase substrate is added. The plate is incubated 45 minutes at room temperature, and color development is determined at OD405 nm. The quantitation of active PAI-1 bound to tPA at varying concentrations of the test compound is used to determine the IC50. Results are analyzed using a logarithmic best-fit equation. The assay sensitivity is 5 ng/ml of human PAI-1 as determined from a standard curve ranging from 0–100 ng/ml.

| inhibition at 10 µM [1] [%] | inhibition at 25 µM [1] [%] | melting point | IC50 [2] [µM] | SMILES |
| --- | --- | --- | --- | --- |
| 31 | 49 | 173 to 175 °C |  | FC(F)(F)c1ccc(Cn2c(-c3ccccc3)ccc2-c2ccc3cc(OCc4nnn[nH]4)ccc3c2)cc1 [Example 9, 5-{[(6-{5-Phenyl-1-[4-(trifluoromethyl)benzyl]-1H-pyrrol-2-yl}-2-naphthyl)oxy]methyl}-1H-tetraazole] |
| 30 | 68 | 309 to 310 °C |  | O=C(O)c1ccc(COc2ccc3cc(-c4ccc(-c5ccccc5)n4-c4ccccc4)ccc3c2)cc1 [Example 15, 4-({[6-(1,5-diphenyl-1H-pyrrol-2-yl)-2-naphthyl]oxy}methyl)benzoic acid] |
| 18 | 44 | 289 to 291 °C |  | O=C(O)c1ccc(COc2ccc3cc(-c4ccc(-c5ccccc5)[nH]4)ccc3c2)c(C(=O)O)c1 [Example 17, 4-({[6-(5-phenyl-1H-pyrrol-2-yl)-2-naphthyl]oxy}methyl)isophthalic acid] |
| 37 | 66 | 70 to 80 °C | 16.1 | O=C(O)C(Cc1ccccc1)Oc1ccc2cc(-c3ccc(-c4ccccc4)n3Cc3ccccc3)ccc2c1 (stereo not drawn) [Example 2, 2-{[6-(1-benzyl-5-phenyl-1H-pyrrol-2-yl)-2-naphthyl]oxy}-3-phenylpropanoic acid] |
| 40 | 63 | 250 to 252 °C |  | O=C(O)c1ccc(COc2ccc3cc(-c4ccc(-c5ccccc5)n4Cc4ccc(C(F)(F)F)cc4)ccc3c2)c(C(=O)O)c1 [Example 16, 4-{[(6-{5-phenyl-1-[4-(trifluoromethyl)benzyl]-1H-pyrrol-2-yl}-2-naphthyl)oxy]methyl}isophthalic acid] |
| 14 | 74 | 171 to 172 °C |  | O=C(O)COc1ccc2cc(-c3ccc(-c4ccccc4)n3Cc3ccccc3)ccc2c1 [Example 6, {[6-(1-benzyl-5-phenyl-1H-pyrrol-2-yl)-2-naphthyl]oxy}acetic acid] |
| 29 | 55 | 154 to 156 °C |  | O=C(O)COc1ccc2cc(-c3ccc(-c4ccccc4)n3Cc3ccc(C(F)(F)F)cc3)ccc2c1 [Example 10, [(6-{5-Phenyl-1-[4-(trifluoromethyl)benzyl]-1H-pyrrol-2-yl}-2-naphthyl)oxy]acetic acid] |
| 12 | 78 | 176 to 178 °C | 44.4 | O=C(O)C(Cc1ccccc1)Oc1ccc2cc(-c3ccc(-c4ccccc4)[nH]3)ccc2c1 (stereo not drawn) [Example 1, 3-phenyl-2-{[6-(5-phenyl-1H-pyrrol-2-yl)-2-naphthyl]oxy}propanoic acid] |
| 30 | 95 | 171 to 173 °C |  | Cn1c(-c2ccccc2)ccc1-c1ccc2cc(OC(Cc3ccccc3)C(=O)O)ccc2c1 (stereo not drawn) [Example 7, 2-{[6-(1-methyl-5-phenyl-1H-pyrrol-2-yl)-2-naphthyl]oxy}-3-phenylpropanoic acid] |
| 15 | 32 | 231 to 233 °C (dec.) |  | Cn1c(-c2ccccc2)ccc1-c1ccc2cc(OCc3nnn[nH]3)ccc2c1 [Example 5, 5-({[6-(1-methyl-5-phenyl-1H-pyrrol-2-yl)-2-naphthyl]oxy}methyl)-1H-tetraazole] |
| 15 | 52 | 237 to 240 °C (dec.) | 33 | c1ccc(-c2ccc(-c3ccc4cc(OCc5nnn[nH]5)ccc4c3)[nH]2)cc1 [Example 3, 5-({[6-(5-phenyl-1H-pyrrol-2-yl)-2-naphthyl]oxy}methyl)-1H-tetraazole] |
| 48 | 58 | 258 to 260 °C (dec.) |  | O=C(O)COc1ccc2cc(-c3ccc(-c4ccccc4)n3-c3ccccc3)ccc2c1 [Example 12, {[6-(1,5-diphenyl-1H-pyrrol-2-yl)-2-naphthyl]oxy}acetic acid] |
| 33 | 60 | 194 to 196 °C (dec.) |  | O=C(O)C(Cc1ccccc1)Oc1ccc2cc(-c3ccc(-c4ccccc4)n3-c3ccccc3)ccc2c1 (stereo not drawn) [Example 13, 2-{[6-(1,5-diphenyl-1H-pyrrol-2-yl)-2-naphthyl]oxy}-3-phenylpropanoic acid] |
| 30 | 68 | 269 to 270 °C (dec.) |  | c1ccc(-c2ccc(-c3ccc4cc(OCc5nnn[nH]5)ccc4c3)n2-c2ccccc2)cc1 [Example 11, 5-({[6-(1,5-diphenyl-1H-pyrrol-2-yl)-2-naphthyl]oxy}methyl)-1H-tetraazole] |
| 43 | 62 | 153 to 155 °C |  | O=C(O)C(Cc1ccccc1)Oc1ccc2cc(-c3ccc(-c4ccccc4)n3Cc3ccc(C(F)(F)F)cc3)ccc2c1 (stereo not drawn) [Example 8, 3-phenyl-2-[(6-{5-phenyl-1-[4-(trifluoromethyl)benzyl]-1H-pyrrol-2-yl}2-naphthyl)oxy]propanoic acid] |
| 11 | 67 | 190 to 200 °C (dec.) |  | c1ccc(Cn2c(-c3ccccc3)ccc2-c2ccc3cc(OCc4nnn[nH]4)ccc3c2)cc1 [Example 4, 5-({[6-(1-benzyl-5-phenyl-1H-pyrrol-2-yl)-2-naphthyl]oxy}methyl)-1H-tetraazole] |
| 23 | 31 | 228 to 229 °C |  | O=C(O)c1ccc(COc2ccc3cc(-c4ccc(-c5ccccc5)n4Cc4ccc(C(F)(F)F)cc4)ccc3c2)cc1 [Example 14, 4-{[(6-{5-phenyl-1-[4-(trifluoromethyl)benzyl]-1H-pyrrol-2-yl}-2-naphthyl)oxy]methyl}benzoic acid] |
